Results reported in patent US20030083469A1, “Allosteric control of nuclear hormone receptors” (The Salk Institute for Biological Studies, priority 1995, published 2003).

What was measured:
[1] = molecular target: T1, GAL-Nurrl + RXR-LBD (Homo sapiens, UniProt P19793); assay: Transient transfection of GAL-Nurrl chimera with RXR LBD; format: cell-based, mouse Nurrl, human RXRα; settings: RXR-LBD co-expressed with GAL-Nurrl; 100 nM
T1 construct: or the human RXRα LBD (Glu 203 -Thr 462); expressed in transfected cells; host or cells: CV-1
T1 sequence (Q06219 318-598 partner limits assumed, one chain of several): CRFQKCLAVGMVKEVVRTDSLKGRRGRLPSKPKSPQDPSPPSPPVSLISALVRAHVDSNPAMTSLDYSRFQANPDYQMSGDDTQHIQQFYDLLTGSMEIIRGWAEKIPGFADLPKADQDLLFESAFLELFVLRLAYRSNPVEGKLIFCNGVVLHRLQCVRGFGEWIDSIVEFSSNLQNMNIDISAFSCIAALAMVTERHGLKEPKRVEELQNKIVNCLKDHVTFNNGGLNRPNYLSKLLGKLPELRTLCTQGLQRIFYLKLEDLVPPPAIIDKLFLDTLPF
Experimental: (§1) CV-1 cells were grown in Dulbecco's Modified Eagle's medium supplemented with 10% resin-charcoal stripped (Samuels et al., Endocrinology 105:80-85 (1979)) fetal bovine serum, 50 U/ml penicillin G and 50 μg/ml streptomycin sulfate (DMEM-FBS) at 37° C. in 5% CO2. One day prior to transfection, cells were plated to 50-80% confluence using phenol-red free DMEM-FBS. Cells were transfected by lipofection using N-{2-(2,3)-dioleoyloxy)propyl-N,N,N-trimethyl ammonium methyl sulfate} according to the manufacturer's instructions (DOTAP, Boehringer Mannheim). […] Cells were harvested and assayed for luciferase and β-galactosidase activity. All points were performed in triplicate in each experiment and varied by less than 10%. Each experiment was repeated three or more times with similar results.
(§2) Since RXR serves as a silent partner in the T3R and RAR pathways, it was next investigated whether RXR could serve as an active component in other complexes. To search for such complexes, the LBD of a number of nuclear receptors were fused to the GAL4 DBD, and tested to determine whether the RXR LBD could confer LG69 responsiveness upon these GAL-LBD chimeras. […] Normalized luciferase activity was determined and plotted as fold-activation relative to untreated cells.

[2] = molecular target: T2, GAL-RXR (Homo sapiens, UniProt P19793); assay: Transient transfection analysis of GAL-RXR LBD alone (UASG x4 TK-LUC, CV-1 cells); format: cell-based; settings: 100 nM LG69
T2 construct: human RXRα LBD (Glu 203 - Thr 462); expressed in transfected cells; host or cells: CV-1
T2 sequence (P19793 203-462): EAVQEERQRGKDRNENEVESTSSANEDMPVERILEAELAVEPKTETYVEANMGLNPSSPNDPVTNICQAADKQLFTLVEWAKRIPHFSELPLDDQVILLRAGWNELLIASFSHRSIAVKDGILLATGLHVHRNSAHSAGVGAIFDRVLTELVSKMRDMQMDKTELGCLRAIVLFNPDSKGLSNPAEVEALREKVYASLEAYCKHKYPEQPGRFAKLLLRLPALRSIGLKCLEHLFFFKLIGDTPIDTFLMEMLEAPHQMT
Experimental: CV-1 cells were grown in Dulbecco's Modified Eagle's medium supplemented with 10% resin-charcoal stripped (Samuels et al., Endocrinology 105:80-85 (1979)) fetal bovine serum, 50 U/ml penicillin G and 50 μg/ml streptomycin sulfate (DMEM-FBS) at 37° C. in 5% CO2. One day prior to transfection, cells were plated to 50-80% confluence using phenol-red free DMEM-FBS. Cells were transfected by lipofection using N-{2-(2,3)-dioleoyloxy)propyl-N,N,N-trimethyl ammonium methyl sulfate} according to the manufacturer's instructions (DOTAP, Boehringer Mannheim). […]. All points were performed in triplicate in each experiment and varied by less than 10%. Each experiment was repeated three or more times with similar results.
Thus, a chimeric protein was constructed containing the yeast GAL4 DBD linked to the RXR LBD (GAL-RXR). The ability of this RXR-chimera to respond to LG69 was initially examined in the presence of truncated receptors containing the LBDs of T3R or RAR. Thus, transient transfection analysis of GAL-RXR LBD was carried out in the presence of T3R, RAR or VDR LBDs. Reporter constructs contained 4 copies of the UASG cloned upstream of the TK-LUC reporter. […] Normalized luciferase activity was determined and plotted as reporter activity (see FIG. 3).
[…]. Normalized luciferase activity was determined and plotted as fold-activation relative to untreated cells.

[3] = molecular target: T3, Nurrl+RXR LBD (Homo sapiens, UniProt P19793); assay: Transient transfection of Nurrl with RXR LBD on NBRE x3 reporter; format: cell-based, mouse Nurrl, human RXRα; settings: NBRE×3; 100 nM LG69
T3 construct: or the human RXRα LBD (Glu 203 -Thr 462); expressed in transfected cells; host or cells: CV-1
T3 sequence (Q06219 whole entry partner, one chain of several, the tested form may be a part): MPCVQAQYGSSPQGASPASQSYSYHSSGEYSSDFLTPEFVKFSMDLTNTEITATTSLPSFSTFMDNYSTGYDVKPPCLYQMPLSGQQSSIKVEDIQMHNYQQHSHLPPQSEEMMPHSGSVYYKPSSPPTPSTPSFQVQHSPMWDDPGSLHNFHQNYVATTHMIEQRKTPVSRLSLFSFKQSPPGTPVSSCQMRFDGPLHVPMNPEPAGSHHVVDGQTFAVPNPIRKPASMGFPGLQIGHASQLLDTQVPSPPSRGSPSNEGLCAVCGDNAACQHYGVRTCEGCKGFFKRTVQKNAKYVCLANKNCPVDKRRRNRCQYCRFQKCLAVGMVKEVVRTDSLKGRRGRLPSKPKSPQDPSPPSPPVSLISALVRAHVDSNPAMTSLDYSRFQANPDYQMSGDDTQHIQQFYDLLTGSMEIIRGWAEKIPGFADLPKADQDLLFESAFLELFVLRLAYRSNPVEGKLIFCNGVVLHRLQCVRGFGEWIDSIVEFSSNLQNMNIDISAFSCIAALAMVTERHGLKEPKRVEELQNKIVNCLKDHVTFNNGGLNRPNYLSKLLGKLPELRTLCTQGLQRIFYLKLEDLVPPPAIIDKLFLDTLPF
Experimental: as §1
This prompted an investigation of the question of whether the RXR DBD is required for activation through the Nurrl pathway. Thus, CV-1 cells were transfected with TK-LUC reporters (300 ng/10^5 cells), CMX-βgal (500 ng/10^5 cells) and the indicated CMX-receptor construct (20 ng/10^5 cells; see FIG. 7D) with or without CMX-RXR-LBD (100 ng/10^5 cells) . […] Normalized luciferase activity was determined and plotted as percent of maximal fold-activation where 100% is defined as the fold activation by T3R, RAR, VDR, the RXR LBD, or Nurrl+RXR LBD. […]

[4] = molecular target: T4, GAL-RAR + RXR LBD (Homo sapiens, UniProt P19793); assay: Transient transfection of GAL-RAR chimera with RXR LBD; format: cell-based; settings: 100 nM LG69
T4 construct: or the human RXRα LBD (Glu 203 -Thr 462); expressed in transfected cells; host or cells: CV-1
T4 sequence (P19793 203-462): T2 sequence (P19793 203-462)
Experimental: as §1, §2

SMILES: CC=C(c1ccc(C(=O)O)cc1)c1cc2c(cc1C)C(C)(C)CCC2(C)C [LG69, 4-{1-(3,5,5,8,8-pentamethyl-5,6,7,8-tetrahydro-2-napthalenyl)-1-propenyl}benzoic acid]
- responsiveness to ligand [1]: strong responsiveness
- activation of the UASG reporter by GAL-RXR in response to ligand [2]: activated
- fold response to LG69 ([2]; GAL-RXR alone): 69 fold
- LG69 responsiveness conferred upon Nurrl by the RXR LBD [3]: strong
- LG69 responsiveness [4]: not seen
